The nature of series [1]: Aqueous solubility in PBS, pH 7.4. The settings on record: phosphate buffered saline, pH 7.4, aqueous buffer, thermodynamic from solid, pH 7.4 phosphate buffered saline, 24 hours, amorphous or crystalline material; read-out: Aqu. Solubility. It is filed as physicochemical. The method, then: Aqueous solubility of the compounds was determined by suspending excess solid (typically 0.3-0.5 mg) in PBS, pH 7.4, at a concentration of 0.5 mg/mL. The suspension was vortexed for 10-30 seconds to wet the material and stirred at 600 rpm for 24 hours. For analysis by UPLC, 150 μL aliquot sample was transferred into a […] PVDF spin filter and centrifuged at 14,000 rpm for 5 minutes. 100 μL of the filtrate was diluted with 100 μL 1:1 Acetonitrile (ACN):H2O. The resultant samples were analyzed using UPLC and quantified against a standard curve of the compound of interest dissolved in 1:1 ACN:H2O. The retains of the solids were checked by XRPD and PLM to determine if the phase of the material was crystalline or amorphous.

The subject of series [2] is HIV-1 wild-type (R8) virus. Nature of the series: Viral KINetics in Green cells (VIKING) assay, HIV-1 replication in MT4-GFP reporter cells. The settings on record: Human immunodeficiency virus 1, 10% normal human serum, MT4-GFP cells, HIV-1 wild-type (R8); read-out: Viking (10% NHS), IC50. It is filed as cell-based. As to the method:
Antiviral potency of the compounds was determined based on their ability to block HIV-1 replication in a GFP reporter cell line; this assay is referred to as Viral KINetics in Green cells or VIKING assay. HIV-1 replication was monitored using MT4-gag-GFP clone D3 (hereafter designate MT4-GFP) cells, which are MT4 cells modified to harbor a GFP reporter gene, the expression of which is dependent on the HIV-1 proteins tat and rev. (MT4 is a human T-cell line that is particularly sensitive to HIV-1 replication.) HIV-1 infection of MT4-GFP cells results in GFP expression approximately 24 h post-infection. MT4-GFP cells were maintained at 37° C./5% CO2/90% relative humidity in RPMI 1640 supplemented with 10% fetal bovine serum, 100 U/mL penicillin/streptomycin, and […] G418 to maintain the reporter gene. For infections, MT4-GFP cells were placed in the same medium lacking G418 and infected overnight with HIV-1 wild-type (R8) virus at an approximate multiplicity of infection of 0.01 in the same incubation conditions. Cells were then washed and resuspended in RPMI 1640 containing 10% normal human serum at 2×10^5 cells/mL. Compound plates were prepared by dispensing compounds dissolved in DMSO into wells of 384-well poly D lysine-coated plates (0.2 μl/well) using an ECHO acoustic dispenser. Each compound was tested in a 10-point serial 3-fold dilution (typical final concentrations: 4 μM-0.2 nM). Controls included no inhibitor (DMSO only) and a combination of three antiviral agents as a positive control (efavirenz, indinavir, and an integrase strand transfer inhibitor at final concentrations of 4 μM each). Infected cells were added (50 μL/well) to compound plates and were maintained at 37° C./5% CO2/90% relative humidity. Infected cells were quantified at two time points, approximately 48 h and 72 h post-infection, by counting the number of green cells in each well using an Acumen eX3 scanner. The increase in the number of green cells over ˜24 h period gives the reproductive ratio, R, which is calculated by dividing the number of green cells at 72 h over those at 48 h post-infection. The percent inhibition caused by a test compound is calculated using the following formula: […]
The dose-response curves of each test compound were plotted as % inhibition versus the compound concentration. IC50 values were determined by non-linear 4-parameter fitting of the dose-response curves.

Converted amounts (≈) assume the structure as drawn.

Solubility and IC50 data for 34 compounds are collected here from US20240287124A1, “PRODRUGS OF 4'-SUBSTITUTED NUCLEOSIDE REVERSE TRANSCRIPTASE INHIBITORS” (Merck Sharp & Dohme LLC, priority 2023, published 2024).

On to `C#C[C@]1(CO)O[C@@H](n2ccc3c(N)nc(Cl)nc32)C[C@@H]1OC(=O)CCCCCCC` [Example 24, (2R,3S,5R)-5-(4-amino-2-chloro-7H-pyrrolo[2,3-d]pyrimidin-7-yl)-2-ethynyl-2-(hydroxymethyl)tetrahydrofuran-3-yl octanoate], for which the solubility at 24 h in series [1] was less than 1 µg/mL. The IC50 in series [2] was found to be 1.7 nM.
`C#C[C@]1(CO)O[C@@H](n2ccc3c(N)nc(Cl)nc32)C[C@@H]1OC(=O)OCCCCC` [Example 13, (2R,3S,5R)-5-(4-amino-2-chloro-7H-pyrrolo[2,3-d]pyrimidin-7-yl)-2-ethynyl-2-(hydroxymethyl)tetrahydrofuran-3-yl pentyl carbonate]: the solubility at 24 h in series [1] was 1.9 µg/mL (≈ 4.49 µM). Moreover, in series [2], the IC50 was 2.2 nM.
For `C#C[C@]1(CO)O[C@@H](n2ccc3c(N)nc(Cl)nc32)C[C@@H]1OC(=O)OCC1CCCCC1` [Example 154], the solubility at 24 h in series [1] is less than 1 µg/mL. Besides, the IC50 in series [2] came to 3.5 nM.
For the compound `C#C[C@]1(COC(=O)OCc2ccccc2)O[C@@H](n2ccc3c(N)nc(Cl)nc32)C[C@@H]1OC(=O)OCc1cccnc1` [Example 174], in series [1], the solubility at 24 h was less than 1 µg/mL. Also, the concentration for half-maximal inhibition (IC50) in series [2] is 13 nM.
As for `C#C[C@]1(CO)O[C@@H](n2ccc3c(N)nc(Cl)nc32)C[C@@H]1OC(=O)OCCC12CC3CC(CC(C3)C1)C2` [Example 36, 2-(adamantan-1-yl)ethyl ((2R,3S,5R)-5-(4-amino-2-chloro-7H-pyrrolo[2,3-d]pyrimidin-7-yl)-2-ethynyl-2-(hydroxymethyl)tetrahydrofuran-3-yl) carbonate], in series [1], the solubility at 24 h is less than 1 µg/mL. The 50% inhibitory concentration (IC50) in series [2] stood at 5.5 nM.
Consider `C#C[C@]1(COC(=O)OCc2cc[nH]c(=O)c2)O[C@@H](n2ccc3c(N)nc(Cl)nc32)C[C@@H]1OC(=O)OCc1cc[nH]c(=O)c1` [Example 225], for which the solubility at 24 h in series [1] was determined as 70 µg/mL (≈ 115 µM). Moreover, in series [2], the 50% inhibitory concentration (IC50) stood at 13 nM.
For `C#C[C@]1(COC(=O)OCCC23CC4CC(CC(C4)C2)C3)O[C@@H](n2ccc3c(N)nc(Cl)nc32)C[C@@H]1O` [Example 35, 2-(adamantan-1-yl)ethyl (((2R,3S,5R)-5-(4-amino-2-chloro-7H-pyrrolo[2,3-d]pyrimidin-7-yl)-2-ethynyl-3-hydroxytetrahydrofuran-2-yl)methyl) carbonate], the solubility at 24 h in series [1] was less than 1 µg/mL. Also, the IC50 in series [2] came to 6.2 nM.
For `C#C[C@]1(CO)O[C@@H](n2ccc3c(N)nc(Cl)nc32)C[C@@H]1OC(=O)OCCC` [Example 80], in that order: 305 µg/mL (≈ 773 µM) and 10 nM.
Turning to `C#C[C@]1(CO)O[C@@H](n2ccc3c(N)nc(Cl)nc32)C[C@@H]1OC(=O)OCCCCC[C@@H]1SC[C@@H]2NC(=O)N[C@@H]21` [Example 160], in series [1], the solubility at 24 h is less than 1 µg/mL. The concentration for half-maximal inhibition (IC50) in series [2] is 11 nM.
Consider `C#C[C@]1(CO)O[C@@H](n2ccc3c(N)nc(Cl)nc32)C[C@@H]1OC(=O)Cc1ccc(Br)cc1` [Example 181], for which the solubility at 24 h in series [1] was less than 1 µg/mL. Moreover, in series [2], the 50% inhibitory concentration (IC50) came to 4 nM.
As for `C#C[C@]1(COC(=O)c2ccccn2)O[C@@H](n2ccc3c(N)nc(Cl)nc32)C[C@@H]1O` [Example 50], the solubility at 24 h in series [1] was 239 µg/mL (≈ 578 µM). Also, in series [2], the concentration for half-maximal inhibition (IC50) stood at 1.6 nM.
With `C#C[C@]1(COC(=O)OCc2ccn(C)c(=O)c2)O[C@@H](n2ccc3c(N)nc(Cl)nc32)C[C@@H]1OC(=O)OCc1ccccc1` [Example 162], the IC50 in series [2] was 8.9 nM.
For `C#C[C@]1(CO)O[C@@H](n2ccc3c(N(C(=O)OCCCCCC)C(=O)OCCCCCC)nc(Cl)nc32)C[C@@H]1O` [Example 222], the concentration for half-maximal inhibition (IC50) in series [2] stood at 1370 nM.
With `C#C[C@]1(COC(=O)Cc2ccc(Cl)cc2)O[C@@H](n2ccc3c(N)nc(Cl)nc32)C[C@@H]1OC(=O)OCCC12CC3CC(CC(C3)C1)C2` [Example 107], in series [2], the IC50 was found to be 74 nM.
`C#C[C@]1(CO)O[C@@H](n2ccc3c(NC(=O)OCCc4ccccc4)nc(Cl)nc32)C[C@@H]1O` [Example 149]: the 50% inhibitory concentration (IC50) in series [2] worked out at 429 nM.
For the compound `C#C[C@]1(COC(=O)OCC23CC(C2)C3)O[C@@H](n2ccc3c(N)nc(Cl)nc32)C[C@@H]1OC(=O)OCC12CC(C1)C2` [Example 167], the IC50 in series [2] came to 7.2 nM.
As for `C#C[C@]1(CO)O[C@@H](n2ccc3c(N)nc(Cl)nc32)C[C@@H]1OC(=O)[C@@H](C)c1ccccc1` [Example 102], the IC50 in series [2] was 43 nM.
Take `C#C[C@]1(CO)O[C@@H](n2ccc3c(N(C(=O)OCCCCCCCCCCCC)C(=O)OCCCCCCCCCCCC)nc(Cl)nc32)C[C@@H]1O` [Example 218]: in series [2], the IC50 was more than 4030 nM.
For the compound `C#C[C@]1(COC(=O)[C@H](C)c2ccccc2)O[C@@H](n2ccc3c(N)nc(Cl)nc32)C[C@@H]1OC(=O)[C@H](C)c1ccccc1` [Example 98], in series [2], the IC50 amounted to 91 nM.
For `C#C[C@]1(COC(=O)OCc2cccnc2)O[C@@H](n2ccc3c(N)nc(Cl)nc32)C[C@@H]1OC(=O)OCC` [Example 172], in series [2], the concentration for half-maximal inhibition (IC50) is 25 nM.
On the same count and under the same terms, the result for `C#C[C@]1(CO)O[C@@H](n2ccc3c(NC(=O)CCC45CC6CC(CC(C6)C4)C5)nc(Cl)nc32)C[C@@H]1O` [Example 69, 3-(adamantan-1-yl)-N-(2-chloro-7-((2R,4S,5R)-5-ethynyl-4-hydroxy-5-(hydroxymethyl)tetrahydrofuran-2-yl)-7H-pyrrolo[2,3-d]pyrimidin-4-yl)propanamide] reads 10 nM; that for `C#C[C@]1(CO)O[C@@H](n2ccc3c(N(C(=O)OCCCCCCCC)C(=O)OCCCCCCCC)nc(Cl)nc32)C[C@@H]1O` [Example 224], 842 nM.
As for `C#C[C@]1(COC(=O)OCCC23CC(C2)C3)O[C@@H](n2ccc3c(N)nc(Cl)nc32)C[C@@H]1O` [Example 170], the IC50 in series [2] came out at 4.3 nM.
Still for that read-out and setting: under `C#C[C@]1(COC(=O)CCCC)O[C@@H](n2ccc3c(N)nc(Cl)nc32)C[C@@H]1OC(C)=O` [Example 186] stands 25 nM.
As to `C#C[C@]1(COC(=O)OCc2ccccc2)O[C@@H](n2ccc3c(NC(=O)CCc4ccccc4)nc(Cl)nc32)C[C@@H]1O` [Example 202], in series [2], the IC50 is 146 nM.
On to `C#C[C@]1(CO)O[C@@H](n2ccc3c(NC(=O)OCCCCCCCCCCCCCC)nc(Cl)nc32)C[C@@H]1O` [Example 63, Tetradecyl (2-chloro-7-((2R,4S,5R)-5-ethynyl-4-hydroxy-5-(hydroxymethyl)tetrahydrofuran-2-yl)-7H-pyrrolo[2,3-d]pyrimidin-4-yl)carbamate], for which the half-maximal inhibitory concentration (IC50) in series [2] came out at 1490 nM.
As to `C#C[C@]1(COC(=O)OCc2cc[nH]c(=O)c2)O[C@@H](n2ccc3c(N)nc(Cl)nc32)C[C@@H]1O` [Example 130], the IC50 in series [2] came out at 2.9 nM.
Consider `C#C[C@]1(COC(=O)C23CC(C2)C3)O[C@@H](n2ccc3c(N)nc(Cl)nc32)C[C@@H]1O` [Example 106], for which the concentration for half-maximal inhibition (IC50) in series [2] is 2.5 nM.
Regarding `C#C[C@]1(COCOC(=O)c2ccccc2)O[C@@H](n2ccc3c(N)nc(Cl)nc32)C[C@@H]1OCOC(=O)c1ccccc1` [Example 137], in series [2], the IC50 was 4.5 nM.
Consider `C#C[C@]1(CO)O[C@@H](n2ccc3c(NC(=O)OCCCCCCCC)nc(Cl)nc32)C[C@@H]1O` [Example 223], for which the IC50 in series [2] was 411 nM.
For `C#C[C@]1(COC(=O)OCc2ccc[nH]c2=O)O[C@@H](n2ccc3c(N)nc(Cl)nc32)C[C@@H]1OC(=O)OCc1ccc[nH]c1=O` [Example 205], the IC50 in series [2] was 4 nM.
Regarding `C#C[C@]1(COC(=O)OCc2ccccc2)O[C@@H](n2ccc3c(N)nc(Cl)nc32)C[C@@H]1OC(=O)CCCC[C@@H]1SC[C@@H]2NC(=O)N[C@@H]21` [Example 195], the IC50 in series [2] was 40 nM.
On to `C#C[C@]1(COC(=O)OCc2ccccc2)O[C@@H](n2ccc3c(N)nc(Cl)nc32)C[C@@H]1OC(=O)CCCCCCC` [Example 211], for which the IC50 in series [2] turned out to be 4 nM.
For the compound `C#C[C@]1(COC(=O)OCCCCC[C@@H]2SC[C@@H]3NC(=O)N[C@@H]32)O[C@@H](n2ccc3c(N)nc(Cl)nc32)C[C@@H]1O` [Example 132], the IC50 in series [2] was determined as 3 nM.
